# According to paper PMC10300873, “Characterization of Polyphenols from Chenopodium botrys after Fractionation with Different Solvents and Study of Their In Vitro Biological Activity” (Molecules, 2023):
# Test system: T1, trypsin
# T1 construct: gene PRSS1
# Assay: antitryptic activity: albumin digestion, perchloric acid precipitation, A280
# Format: biochemical
# Settings: human albumin (4% v/v) as substrate, Tris-HCl pH 7.4, 37 °C, 5 min preincubation, 20 min reaction
# Source text: antitryptic activity: albumin digestion, perchloric acid precipitation, A280 on trypsin
smiles,measurement,value
CC(C)Cc1ccc(C(C)C(=O)O)cc1 (stereo not shown) [ibuprofen],ATA / IC50 ± SD,259.82 ± 9.14 µg/mL
